Data published in patent US10808003B2, “Amphipathic molecule based on tandem malonate and use thereof” (Industry-University Cooperation Foundation Hanyang …, priority 2017, dated 2020).
“Also recorded” adds a separate entry of the source.

Experiments:
[1] = tested on: LeuT (leucine transporter); assay: LeuT stability by [3H]-Leu substrate binding, scintillation proximity assay (SPA); format: biochemical, Aquifex aeolicus; settings: TMGs or DDM at CMC+0.04 wt %, 10 days at room temperature
Procedure: An experiment of measuring LeuT protein stability for TMGs and TMMs was performed. (a) CMC+0.04 wt % or (b) CMC+0.2 wt % of each amphipathic molecule was used, and the evaluation of the LeuT protein stability was performed by taking an advantage of a characteristic of LeuT binding to a substrate through a scintillation proximity assay (SPA) using [^3H]-Leu. […]
Specifically, wild type LeuT (leucine transporter) derived from a thermophilic bacterium, Aquifex aeolicus, was purified by a previously-disclosed method (G. Deckert et al., Nature 1998, 392, 353-358). LeuT was expressed in E. coli C41 (DE3) transformed with pET16b encoding a C-terminus 8×His-tagged transporter (the expression plasmid was provided by Dr E. Gouaux, Vollum Institute, Portland, Oreg., USA). In summary, following isolation of a bacterial membrane and lysis with 1% (w/v) DDM, the protein was allowed to bind to a Ni^2+-NTA resin (Life Technologies, Denmark), and eluted in 20 mM Tris-HCl (pH 8.0), 1 mM NaCl, 199 mM KCl, 0.05% (w/v) DDM and 300 mM imidazole. Afterward, the purified LeuT (approximately 1.5 mg/ml) was diluted with the same buffer used above, from which DDM and imidazole were removed, and then supplemented with TMGs or DDM at the final concentration of CMC+0.04% (w/v). […] SPA was performed using a buffer containing 450 mM NaCl and each of the TMGs and TMMs at the predetermined concentration. The SPA reaction is performed in the presence of 20 nM [^3H]-Leucine and 1.25 mg/ml copper chelate (His-Tag) YSi beads (Perkin Elmer, Denmark). A total [^3H]-Leucine binding degree of each sample was measured using a MicroBeta liquid scintillation counter (Perkin Elmer).

[2] = Hydrodynamic radius of micelles by dynamic light scattering (DLS); format: physicochemical; settings: micelles formed by each agent at 1.0 wt %
Procedure: A method of measuring the radius of the micelles is not particularly limited, and any method well known in the art, for example, a DLS test may be used.
(§1) Specifically, a CMC was measured using fluorescent staining and diphenylhexatriene (DPH), and the hydrodynamic radii (Rh) of micelles formed by each agent (1.0 wt %) were measured by a DLS test. The measured results were compared with those for the conventional amphipathic molecule (detergent), DDM, and thus are shown in Table 1.

[3] = molecular target: T1, melibiose permease (MelBSt) (Salmonella typhimurium, UniProt P30878); assay: MelBSt extraction and solubility at four temperatures, SDS-PAGE and western blotting; format: biochemical; settings: 1.5 wt %, 90 minutes
T1 construct: made in house; host or cells: E. coli DW2 cells (melB and lacZY), plasmid pK95AHB/WT MelBSt/CH10
T1 sequence (P30878 whole entry): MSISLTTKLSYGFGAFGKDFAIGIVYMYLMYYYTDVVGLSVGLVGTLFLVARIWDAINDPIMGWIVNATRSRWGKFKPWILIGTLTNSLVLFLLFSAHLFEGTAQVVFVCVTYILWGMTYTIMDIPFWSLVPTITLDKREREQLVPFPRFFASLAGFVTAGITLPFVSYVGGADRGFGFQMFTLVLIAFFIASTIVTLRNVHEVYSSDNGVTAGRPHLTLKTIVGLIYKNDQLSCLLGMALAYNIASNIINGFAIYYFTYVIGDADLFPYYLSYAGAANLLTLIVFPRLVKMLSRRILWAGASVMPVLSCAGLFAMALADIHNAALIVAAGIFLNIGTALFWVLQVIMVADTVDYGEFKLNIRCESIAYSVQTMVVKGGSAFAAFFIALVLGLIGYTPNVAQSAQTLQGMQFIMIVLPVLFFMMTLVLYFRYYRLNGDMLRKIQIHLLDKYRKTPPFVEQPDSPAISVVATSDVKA
Procedure: An experiment was performed to measure structural stability of Salmonella typhimurium melibiose permease (MelBSt) protein by TMGs. The MelBSt protein was extracted from a membrane using TMGs or DDM, and then an amount of the extracted protein and its structure were analyzed by SDS-PAGE and western blotting. A concentration of the amphipathic molecule used was 1.5 wt %, and two types of performance such as protein extraction efficiency and stabilization ability of the compound were simultaneously evaluated by extracting the protein at four temperatures (0, 45, 55, and 65° C.), incubating the protein for 90 minutes at the same temperatures, and measuring an amount of the protein remaining dissolved in an aqueous solution. The amount of the protein extracted and stabilized by each amphipathic molecule was expressed as a relative value (%) with respect to a total amount of the protein contained in a membrane sample not treated with an amphipathic molecule.
Specifically, Salmonella typhimurium MelBSt (melibiose permease) having a 10-His tag at the C-terminus was expressed in E. coli DW2 cells (melB and lacZY) using plasmid pK95AHB/WT MelBSt/CH10. According to the method disclosed in the article written by A. S. Ethayathulla et al. (Nat. Commun. 2014, 5, 2009), cell growth and membrane preparation were performed. A protein assay was performed using a Micro BCA kit (Thermo Scientific, Rockford, Ill.). Using the protocol disclosed in Nat. Methods 2010, 7, 1003-1008 written by P. S. Chae et al., DDM or TMGs were evaluated for MelBSt stability. A MelBSt-containing membrane sample (the final protein concentration was 10 mg/mL) was incubated at four temperatures (0, 45, 55 and 65° C.) for 90 minutes in a 1.5% (w/v) DDM or TMG-containing solubilization buffer (20 mM sodium phosphate, pH 7.5, 200 mM NaCl, 10% glycerol, 20 mM melibiose). To remove insoluble material, ultracentrifugation was performed using a Beckman Optima™ MAX ultracentrifuge equipped with a TLA-100 rotor at 355,590 g at 4° C. for 45 minutes, and then 20 μg of each protein sample was separated using SDS-15% PAGE, followed by immunoblotting using a Penta-His-HRP antibody (Qiagen, Germantown, Md.). MelBSt was measured by an ImageQuant LAS 4000 biomolecular imager (GE Health Care Life Sciences) using a SuperSignal West Pico chemiluminescent substrate.

[4] = Critical micelle concentration by fluorescent staining with diphenylhexatriene (DPH); format: physicochemical; settings: aqueous solution
Procedure: A method of measuring CMC is not particularly limited, and any method well known in the art, for example, a fluorescent staining method using diphenylhexatriene (DPH) may be used.
as §1

[5] = molecular target: T2, uric acid-xanthine/H+ symporter (UapA) (Emericella nidulans, UniProt Q07307, G411V); assay: Thermal/structural stability of UapA by CPM fluorescence assay; format: biochemical, Aspergillus nidulans; settings: CMC+0.2 wt %, 125 minutes at 40° C., FIG. 10
T2 construct: GFP; made in house; host or cells: Saccharomyces cerevisiae FGY217
T2 sequence (Q07307 12-574 G411V): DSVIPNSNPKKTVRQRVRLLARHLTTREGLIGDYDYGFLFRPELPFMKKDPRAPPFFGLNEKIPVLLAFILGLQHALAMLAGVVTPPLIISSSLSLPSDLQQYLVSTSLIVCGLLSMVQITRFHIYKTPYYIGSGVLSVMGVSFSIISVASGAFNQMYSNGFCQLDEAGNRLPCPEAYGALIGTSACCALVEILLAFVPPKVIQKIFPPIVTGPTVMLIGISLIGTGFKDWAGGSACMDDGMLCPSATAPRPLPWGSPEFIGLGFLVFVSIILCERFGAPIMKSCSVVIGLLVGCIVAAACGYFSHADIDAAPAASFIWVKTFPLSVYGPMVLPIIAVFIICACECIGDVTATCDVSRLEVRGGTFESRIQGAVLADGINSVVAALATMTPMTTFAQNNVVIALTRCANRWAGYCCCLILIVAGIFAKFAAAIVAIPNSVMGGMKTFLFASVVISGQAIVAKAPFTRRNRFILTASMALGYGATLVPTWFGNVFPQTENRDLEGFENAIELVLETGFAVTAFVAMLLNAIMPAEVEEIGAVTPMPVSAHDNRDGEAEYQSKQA
Procedure: An experiment of measuring structural stability of a uric acid-xanthine/H+ symporter (UapA) separated from Aspergillus nidulans by TMG was performed. The structural stability of UapA was evaluated using a sulfhydryl-specific fluorophore and N-[4-(7-diethylamino-4-methyl-3-coumarinyl)phenyl]maleimide (CPM).
Specifically, UapAG411V1-11 (hereinafter, referred to as “UapA”) expressed as a GFP fusion protein from a Saccharomyces cerevisiae FGY217 strain, and the protein was separated using a sample buffer (20 mM Tris (pH 7.5), 150 mM NaCl, 0.03% DDM, 0.6 mM xanthine) according to a method disclosed in the article written by J. Leung et al. (Mol. Membr. Biol. 2013, 30, 32-42). The protein having a molecular weight of 100 kDa was concentrated to approximately 10 mg/mL using a cut-off filter (Millipore). The protein was diluted with a buffer containing each of the TMG-As (TMG-A11, TMG-A12, TMG-A13 and TMG-A14), TMG-Ts (TMG-T11, TMG-T12, TMG-T13 and TMG-T14), MNG-3 or DDM at a ratio of 1:150 to reach the final concentration of CMC+0.04 wt % or CMC+0.2 wt % in a Greiner 96-well plate. A CPM dye (Invitrogen) stored in DMSO (Sigma) was diluted with a staining buffer (20 mM Tris (pH 7.5), 150 mM NaCl, 0.03% DDM, 5 mM EDTA), and 3 μL of the staining buffer was added to each sample. The reaction mixture was incubated at a constant temperature for 125 minutes at 40° C. Fluorescence emission was recorded using a microplate spectrofluorometer set to each of excitation and emission wavelengths of 387 nm and 463 nm. A relative amount of folded proteins was plotted over time using GraphPad Prism.

[6] = molecular target: T3, human β2 adrenergic receptor (β2AR) (Homo sapiens, UniProt P07550); assay: β2AR stability by [3H]-dihydroalprenolol (DHA) ligand binding assay; format: biochemical; settings: CMC+0.2 wt %; for long-term maintenance of binding between β2AR and ligand: 7-day incubation at room temperature, FIG. 14b; for initial β2AR receptor activity ([3H]-DHA binding): FIG. 14a
T3 construct: made in house; host or cells: cell membrane
T3 sequence (P07550 whole entry): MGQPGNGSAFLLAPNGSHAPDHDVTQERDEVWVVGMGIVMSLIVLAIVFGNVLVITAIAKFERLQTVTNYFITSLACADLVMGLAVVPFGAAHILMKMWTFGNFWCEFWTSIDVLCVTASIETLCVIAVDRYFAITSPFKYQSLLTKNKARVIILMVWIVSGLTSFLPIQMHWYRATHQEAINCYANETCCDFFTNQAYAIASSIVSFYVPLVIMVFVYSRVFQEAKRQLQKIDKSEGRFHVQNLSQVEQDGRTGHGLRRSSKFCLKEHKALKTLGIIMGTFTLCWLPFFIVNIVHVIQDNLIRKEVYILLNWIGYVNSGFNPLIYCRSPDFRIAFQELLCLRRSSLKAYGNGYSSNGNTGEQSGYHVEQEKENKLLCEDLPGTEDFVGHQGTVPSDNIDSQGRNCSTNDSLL
Procedure: Experiments for measuring stability of a human β2 adrenergic receptor (β2AR) and a G-protein-coupled receptor (GPCR) by TMGs were performed. A receptor was extracted from a cell membrane using 1% DDM and purified with a 0.1% amphipathic molecule. The receptor purified with the DDM was diluted with a buffer solution containing DDM or TMGs to adjust the final concentration of the compound to CMC+0.2 wt %. β2AR solubilized by each amphipathic molecule was stored for 7 days at room temperature, and the sample was incubated with 10 nM [^3H]-dihydroalprenolol (DHA) supplemented with 0.5 mg/ml BSA for 30 minutes at room temperature to evaluate a ligand-binding ability at regular intervals during the experimental period. The mixture was loaded onto a G-50 column, and a liquid running through the column was collected using 1 ml of a binding buffer (20 mM HEPES containing 0.5 mg/ml BSA and 20×CMC of each amphipathic molecule, pH 7.5, 100 mM NaCl). In addition, 15 ml of a scintillation fluid was added, and receptor-bound [^3H]-DHA was measured using a scintillation counter (Beckman). A binding degree of the [^3H]-DHA was shown by a column graph (FIG. 14). The experiment was repeated three times.

SMILES | substrate-binding ability of LeuT [1] | Rh (nm), hydrodynamic radius of micelles [2] [nm] | amount of MelBSt solubilized / extraction efficiency ([3]; 45° C.) | amount of MelBSt solubilized / extraction efficiency ([3]; 55° C.) | CMC [4] [mM] | CMC (wt %) [4] [wt %] | ability to conserve UapA transporter in a folded state [5] | long-term maintenance of binding between β2AR and ligand [6] | initial β2AR receptor activity ([3H]-DHA binding) [6]
CCCCCCCCCCCCC(CCCC(CCCCCCCCCCCC)(CO[C@@H]1OC(CO)[C@@H](O)C(O)C1O)CO[C@@H]1OC(CO)[C@@H](O)C(O)C1O)(CO[C@@H]1OC(CO)[C@@H](O)C(O)C1O)CO[C@@H]1OC(CO)[C@@H](O)C(O)C1O (stereo partly drawn) [TMG-A12] | substantially higher substrate-binding ability of the transporter than DDM; also recorded: well maintained for 10 days | 3.3 ± 0.09 | almost all MelBSt was successfully extracted | excellent protein extraction efficiency was able to be confirmed | ~0.010 | ~0.0012 |  |  | 
CCCCCCCCCCCCCC(CCCC(CCCCCCCCCCCCC)(CO[C@@H]1OC(CO)[C@@H](O)C(O)C1O)CO[C@@H]1OC(CO)[C@@H](O)C(O)C1O)(CO[C@@H]1OC(CO)[C@@H](O)C(O)C1O)CO[C@@H]1OC(CO)[C@@H](O)C(O)C1O (stereo partly drawn) [TMG-A13] |  | 3.6 ± 0.16 |  |  | ~0.006 | ~0.0007 | excellent effect of stabilizing transporter folding | superior to DDM in terms of long-term maintenance of binding between the receptor and the ligand | as effective as DDM
CCCCCCCCCCCCCCC(CCCC(CCCCCCCCCCCCCC)(CO[C@@H]1OC(CO)[C@@H](O)C(O)C1O)CO[C@@H]1OC(CO)[C@@H](O)C(O)C1O)(CO[C@@H]1OC(CO)[C@@H](O)C(O)C1O)CO[C@@H]1OC(CO)[C@@H](O)C(O)C1O (stereo partly drawn) [TMG-A14] |  | 3.8 ± 0.10 |  |  | ~0.004 | ~0.0005 | excellent effect of stabilizing transporter folding | superior to DDM in terms of long-term maintenance of binding between the receptor and the ligand | 
CCCCCCCCCCCCCOCC(CO[C@@H]1OC(CO)[C@@H](O)C(O)C1O)(CO[C@@H]1OC(CO)[C@@H](O)C(O)C1O)CSCC(COCCCCCCCCCCCCC)(CO[C@@H]1OC(CO)[C@@H](O)C(O)C1O)CO[C@@H]1OC(CO)[C@@H](O)C(O)C1O (stereo partly drawn) [TMG-T13] | a better characteristic than DDM | 3.3 ± 0.08 |  |  | ~0.006 | ~0.0008 | excellent effect of stabilizing transporter folding | superior to DDM in terms of long-term maintenance of binding between the receptor and the ligand | as effective as DDM
CCCCCCCCCCCCCCOCC(CO[C@@H]1OC(CO)[C@@H](O)C(O)C1O)(CO[C@@H]1OC(CO)[C@@H](O)C(O)C1O)CSCC(COCCCCCCCCCCCCCC)(CO[C@@H]1OC(CO)[C@@H](O)C(O)C1O)CO[C@@H]1OC(CO)[C@@H](O)C(O)C1O (stereo partly drawn) [TMG-T14] | a better characteristic than DDM | 3.8 ± 0.09 |  |  | ~0.004 | ~0.0005 | excellent effect of stabilizing transporter folding | superior to DDM in terms of long-term maintenance of binding between the receptor and the ligand; also recorded: most excellent in maintenance of binding between a receptor and a ligand | 
